PubChem BioAssay (NCI)
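Where inhibition never reached the appropriate level, the endpoint shown equals the highest concentration tested. Otherwise, values were interpolated linearly from a five-concentration, 48-hour dose response in 96-well plates. GI50 is the concentration that inhibits growth by half. TGI is the concentration that stops growth completely.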

Assays:
Assay in all cases: NCI anticancer screen, dose series, 48 h
786-0 renal = tested on: 786-0 renal
ACHN renal = tested on: ACHN renal
BT-549 breast = tested on: BT-549 breast
HCC-2998 colon = tested on: HCC-2998 colon
IGROV1 ovarian = tested on: IGROV1 ovarian
MALME-3M melanoma = tested on: MALME-3M melanoma
NCI/ADR-RES ovarian = tested on: NCI/ADR-RES ovarian
SK-MEL-28 melanoma = tested on: SK-MEL-28 melanoma
SK-MEL-5 melanoma = tested on: SK-MEL-5 melanoma
UACC-257 melanoma = tested on: UACC-257 melanoma

| SMILES | GI50 (786-0 renal) | TGI (786-0 renal) | GI50 (ACHN renal) | TGI (ACHN renal) | GI50 (BT-549 breast) | TGI (BT-549 breast) | GI50 (HCC-2998 colon) | TGI (HCC-2998 colon) | GI50 (IGROV1 ovarian) | TGI (IGROV1 ovarian) | GI50 (MALME-3M melanoma) | TGI (MALME-3M melanoma) | GI50 (NCI/ADR-RES ovarian) | TGI (NCI/ADR-RES ovarian) | GI50 (SK-MEL-28 melanoma) | TGI (SK-MEL-28 melanoma) | GI50 (SK-MEL-5 melanoma) | TGI (SK-MEL-5 melanoma) | GI50 (UACC-257 melanoma) | TGI (UACC-257 melanoma) |
| --- | --- | --- | --- | --- | --- | --- | --- | --- | --- | --- | --- | --- | --- | --- | --- | --- | --- | --- | --- | --- |
| Nc1c(C(=O)Nc2cccc(Cl)c2Cl)sc2nc3c(cc12)C(=O)CCC3 | > 100 µM | > 100 µM | > 100 µM | > 100 µM | > 100 µM | > 100 µM | > 100 µM | > 100 µM | > 100 µM | > 100 µM | > 100 µM | > 100 µM | > 100 µM | > 100 µM | > 100 µM | > 100 µM | 3.54 µM | > 100 µM | > 100 µM | > 100 µM |
| CC(C)=CCCC(C)C1=C(O)C(=O)C(C)=CC1=O (centres undefined) |  | 26.9 µM |  | 3.98 µM |  | 30.2 µM |  | 27.9 µM |  | 32.8 µM |  | 23 µM |  | > 49.1 µM |  | > 42.4 µM |  | 24.6 µM |  | 26.1 µM |
| CC(=O)c1cc(O)c2ccccc2c1O | 20 µM | 35.2 µM | 16.9 µM | 32.5 µM | 20.1 µM | 37.2 µM | 19.9 µM | 37.1 µM | 13 µM | 29.3 µM | 18.2 µM | 34.2 µM | 24.5 µM | 67.5 µM | 22.9 µM | 44.5 µM | 16.3 µM | 30.2 µM | 17.7 µM | 34.1 µM |
| Cc1cc(Nc2cc(N)ncn2)c(=O)n2c1C(=O)NC21CCCCC1 | 22.9 µM | > 100 µM | 25.3 µM | > 100 µM | 48.4 µM | > 100 µM | > 100 µM | > 100 µM | 46.7 µM | > 100 µM | > 100 µM | > 100 µM | > 100 µM | > 100 µM | > 100 µM | > 100 µM | > 100 µM | > 100 µM | > 100 µM | > 100 µM |
| Cc1cccc(Cc2cnc(NC(=O)CCc3ccc(C)o3)s2)c1 | 0.724 µM | > 100 µM | 0.526 µM | > 100 µM | 0.814 µM | > 100 µM | 0.409 µM | > 100 µM | 0.555 µM | > 100 µM |  | > 100 µM | 0.228 µM | > 100 µM | 2.06 µM | > 100 µM | 0.107 µM | 6.08 µM | 15.4 µM | > 100 µM |
| COc1ccccc1C(=O)N(C)c1ccc(Cl)c(C(=O)OC(C)C)c1 |  | > 100 µM |  | > 100 µM |  | 97.7 µM |  | > 100 µM |  | > 100 µM |  | > 100 µM |  | > 100 µM |  | > 100 µM |  | 58.3 µM |  | > 100 µM |
| NC(=S)NN=C1CSSC1 | 11.9 µM | 72.5 µM | 3.05 µM | 31.7 µM | 3.37 µM | 10.1 µM | 6.74 µM | 40.3 µM | 5 µM | 63.1 µM | 3.67 µM | 28.8 µM | 4.11 µM | > 100 µM | 4.67 µM | 25.9 µM | 1.3 µM | 2.76 µM | 1.93 µM | 17.8 µM |
| CCN(c1cc(C#CCN2CCOCC2)cc(C(=O)NCc2c(C)cc(C)[nH]c2=O)c1C)C1CCC(N(C)CCOC)CC1 (centres undefined) | > 100 µM | > 100 µM | > 100 µM | > 100 µM | > 100 µM | > 100 µM | > 100 µM | > 100 µM | > 100 µM | > 100 µM | > 100 µM | > 100 µM | > 100 µM | > 100 µM | > 100 µM | > 100 µM | > 100 µM | > 100 µM | > 100 µM | > 100 µM |
| C=CC1=C(C)C2=NC1=CC1=NC(=C(CC)/C1=C\O)C=C1N=C3C(=C1C)C(=O)[C@H](C(=O)OC)C3=C1NC(=C2)[C@@H](C)[C@@H]1CCC(=O)O |  | > 100 µM |  | > 100 µM |  | > 100 µM |  | > 100 µM |  | > 100 µM |  | > 100 µM |  | > 100 µM |  | > 100 µM |  | > 100 µM |  | > 100 µM |
| COc1cc(NC(=O)C2=C(N3CCOCC3)/C(=C/c3ccc(Cl)cc3)CC2)cc(OC)c1OC | 10.4 µM | 33.1 µM | 16.9 µM | 61.8 µM | 25.5 µM | > 100 µM | 38.9 µM | > 100 µM | 21.3 µM | > 100 µM | > 100 µM | > 100 µM | 42.5 µM | > 100 µM | > 100 µM | > 100 µM | > 100 µM | > 100 µM | > 100 µM | > 100 µM |
| O=C(O)c1cc2ccccc2c2c1C(=O)c1ccccc1-2 |  | > 100 µM |  | > 100 µM |  | > 100 µM |  | > 100 µM |  | > 100 µM |  | > 100 µM |  | > 100 µM |  | > 100 µM |  | > 100 µM |  | > 100 µM |
| CCCCCCCCCCCCCCCCCC(=O)Nc1ccn(C2OC(CO)C(O)C2O)c(=O)n1 (centres undefined) |  | > 100 µM |  | > 100 µM |  | > 91.5 µM |  | > 100 µM |  | > 100 µM |  | > 59.1 µM |  | > 100 µM |  | > 100 µM |  | > 97.5 µM |  | > 100 µM |
| COc1cc(-c2csc(NC(=O)Nc3cc(Cl)cc(Cl)c3)n2)cc(OC)c1OC | 1.84 µM | 3.33 µM | 1.71 µM | 3.15 µM | 2.2 µM | 4.65 µM | 2.39 µM | 5.55 µM | 2.03 µM | 4.04 µM | 1.75 µM | 3.25 µM | 1.85 µM | 3.94 µM | 2.17 µM | 5.43 µM | 3.15 µM | 11.2 µM | 2.98 µM | 8.81 µM |
